Results: patent US12415786B2, “Substituted 2-heteroarylaminobenzenes and the salts thereof and their use as herbicidal agents” (Bayer Aktiengesellschaft, priority 2019, dated 2025)

Tests used:
Assay type in all cases: in vivo
Agrostis tenuis = assay: Herbicidal early post-emergence action (96-well microtiter plates), AGSTE; conditions: 1900 g/ha, scored 9 to 12 days after treatment, 100% = plants have died, 0% = like untreated control plants
In short: (§1)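 Weed seeds grown in quartz sand in 96-well microtiter plates in a climate chamber and treated at the cotyledon stage, 5 to 7 days after sowing, with EC formulations at 2200 L/ha water and a rate equivalent to 1900 g/ha. Visual scoring after 9 to 12 days against untreated controls (0% = control, 100% = dead).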

Poa annua [1] = assay: Herbicidal early post-emergence action (96-well microtiter plates), POAAN; conditions: 1900 g/ha, scored 9 to 12 days after treatment, 100% = plants have died, 0% = like untreated control plants
In short: as §1

Matricaria inodora [2] = assay: Herbicidal post-emergence action (greenhouse pots), MATIN; conditions: 1280 g/ha, visual rating about 3 weeks after treatment vs untreated controls
Text: (§2) In the examples and tables below, the following abbreviations are used: • Undesired Plants/Weeds: • ABUTH: Abutilon theophrasti • AGSTE: Agrostis tenuis • AMARE Amaranthus retroflexus • ECHCG: Echinochloa crus-galli • LOLRI: Lolium rigidum • MATIN: Matricaria inodora • POAAN: Poa annua • SETVI: Setaria viridis • STEME: Stellaria media A. Herbicidal Early Post-Emergence Action Seeds of mono- and dicotyledonous weed plants were placed in plastic pots in sandy loam soil (doubly sown with in each case one species of mono- or dicotyledonous weed plants per pot), covered with soil and cultivated in a greenhouse under controlled growth conditions. 2 to 3 weeks after sowing, the test plants were treated at the one-leaf stage. The compounds of the invention, formulated in the form of wettable powders (WP) or as emulsion concentrates (EC), were applied onto the green parts of the plants as aqueous suspension or emulsion with addition of 0.5% additive at a water application rate of 600 liters per hectare (converted). After the test plants had been kept in the greenhouse under optimum growth conditions for about 3 weeks, the activity of the preparations was rated visually in comparison to untreated controls. For example, 100% activity=the plants have died, 0% activity=like untreated control plants. Tables B1-B8 below show the effects of selected compounds of the general formula (I) according to Table 1 above on various harmful plants and an application rate corresponding to 1280 g/ha, which were obtained by the experimental procedure mentioned above.

Poa annua [3] = assay: Herbicidal post-emergence action (greenhouse pots), POAAN; conditions: 1280 g/ha, visual rating about 3 weeks after treatment vs untreated controls
Text: as §2

Lolium rigidum = assay: Herbicidal pre-emergence action (greenhouse pots), LOLRI; conditions: 1280 g/ha, visual scoring after about 3 weeks vs untreated controls
Text: (§3) In the examples and tables below, the following abbreviations are used: • Undesired Plants/Weeds: • ABUTH: Abutilon theophrasti • AGSTE: Agrostis tenuis • AMARE Amaranthus retroflexus • ECHCG: Echinochloa crus-galli • LOLRI: Lolium rigidum • MATIN: Matricaria inodora • POAAN: Poa annua • SETVI: Setaria viridis • STEME: Stellaria media A. Herbicidal Early Post-Emergence Action Seeds of mono- and dicotyledonous weed plants were placed in plastic pots in sandy loam soil (doubly sown with one species each of mono- or dicotyledonous weed plants per pot) and covered with soil. The compounds of the invention, formulated in the form of wettable powders (WP) or as emulsion concentrates (EC), were then applied onto the surface of the covering soil as aqueous suspension or emulsion with addition of 0.5% additive at a water application rate of 600 liters per hectare (converted). After the treatment, the pots were placed in a greenhouse and kept under good growth conditions for the test plants. After about 3 weeks, the effect of the preparations was scored visually in comparison with untreated controls as percentages. For example, 100% activity=the plants have died, 0% activity=like untreated control plants. Tables C1-C8 below show the effects of selected compounds of the general formula (I) according to Table 1 above on various harmful plants and an application rate corresponding to 1280 g/ha, which were obtained by the experimental procedure mentioned above.

Stellaria media [4] = assay: Herbicidal post-emergence action (greenhouse pots), STEME; conditions: 1280 g/ha, visual rating about 3 weeks after treatment vs untreated controls
In short: (§4)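 Weeds were sown in sandy loam and treated at the one-leaf stage, 2–3 weeks after sowing. WP or EC formulations were applied with 0.5% additive at 600 L/ha water, at a rate of 1280 g/ha. Activity was rated visually after about 3 weeks against untreated controls (0% = untreated, 100% = dead).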

Poa annua [5] = assay: Herbicidal pre-emergence action (greenhouse pots), POAAN; conditions: 1280 g/ha, visual scoring after about 3 weeks vs untreated controls
In short: (§5)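 Sandy loam, seeds covered with soil; WP or EC formulation sprayed on soil surface, 600 L/ha water + 0.5% additive; rate 1280 g/ha; greenhouse ~3 wk; visual % effect vs untreated control.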

Matricaria inodora [6] = assay: Herbicidal pre-emergence action (greenhouse pots), MATIN; conditions: 1280 g/ha, visual scoring after about 3 weeks vs untreated controls
In short: as §5

Abutilon theophrasti [7] = assay: Herbicidal post-emergence action (greenhouse pots), ABUTH; conditions: 1280 g/ha, visual rating about 3 weeks after treatment vs untreated controls
In short: as §4

Echinochloa crus-galli [8] = assay: Herbicidal pre-emergence action (greenhouse pots), ECHCG; conditions: 1280 g/ha, visual scoring after about 3 weeks vs untreated controls
In short: as §5

Stellaria media [9] = assay: Herbicidal pre-emergence action (greenhouse pots), STEME; conditions: 1280 g/ha, visual scoring after about 3 weeks vs untreated controls
In short: as §5

Abutilon theophrasti [10] = assay: Herbicidal pre-emergence action (greenhouse pots), ABUTH; conditions: 1280 g/ha, visual scoring after about 3 weeks vs untreated controls
Text: as §3

Amaranthus retroflexus [11] = assay: Herbicidal post-emergence action (greenhouse pots), AMARE; conditions: 1280 g/ha, visual rating about 3 weeks after treatment vs untreated controls
In short: as §4

Echinochloa crus-galli [12] = assay: Herbicidal post-emergence action (greenhouse pots), ECHCG; conditions: 1280 g/ha, rated after about 3 weeks, 100% = plants have died, 0% = like untreated control plants
Text: as §2

Setaria viridis [13] = assay: Herbicidal pre-emergence action (greenhouse pots), SETVI; conditions: 1280 g/ha, visual scoring after about 3 weeks vs untreated controls
In short: as §5

Amaranthus retroflexus [14] = assay: Herbicidal pre-emergence action (greenhouse pots), AMARE; conditions: 1280 g/ha, visual scoring after about 3 weeks vs untreated controls
In short: as §5

Setaria viridis [15] = assay: Herbicidal post-emergence action (greenhouse pots), SETVI; conditions: 1280 g/ha, rated after about 3 weeks, 100% = plants have died, 0% = like untreated control plants
Text: as §2

Structure (SMILES)	AGSTE (herbicidal activity, scored visually in comparison to untreated controls) (Agrostis tenuis) [%]	POAAN (herbicidal activity, scored visually in comparison to untreated controls) (Poa annua [1]) [%]	herbicidal activity MATIN (Matricaria inodora [2]) [%]	herbicidal activity POAAN (Poa annua [3]) [%]	herbicidal activity LOLRI (Lolium rigidum) [%]	herbicidal activity STEME (Stellaria media [4]) [%]	herbicidal activity POAAN (Poa annua [5]) [%]	herbicidal activity MATIN (Matricaria inodora [6]) [%]	herbicidal activity ABUTH (Abutilon theophrasti [7]) [%]	herbicidal activity ECHCG (Echinochloa crus-galli [8]) [%]	herbicidal activity STEME (Stellaria media [9]) [%]	herbicidal activity ABUTH (Abutilon theophrasti [10]) [%]	herbicidal activity AMARE (Amaranthus retroflexus [11]) [%]	ECHCG (herbicidal activity, rated visually in comparison to untreated controls) (Echinochloa crus-galli [12]) [%]	herbicidal activity SETVI (Setaria viridis [13]) [%]	herbicidal activity AMARE (Amaranthus retroflexus [14]) [%]	SETVI (herbicidal activity, rated visually in comparison to untreated controls) (Setaria viridis [15]) [%]
N#Cc1cccc(Nc2ncc(Cl)cc2F)c1Oc1ccc(F)cc1 [Example 1-139]	100	80	100	100													
N#Cc1cccc(Nc2ncccn2)c1Oc1ccc(F)cc1 [Example 1-248]	100	100		100	100	100	100	100	100	100	100	100	100	100	100	100	
N#Cc1cccc(Nc2ncc(F)cn2)c1Oc1ccc(Cl)cc1 [Example 1-269]	80	100		90	90	100	100	100	90	90	100	90	100	90	100	100	90
N#Cc1cccc(Nc2ncc([N+](=O)[O-])cn2)c1Oc1ccc(F)cc1 [Example 1-306]	100	80	100			100		90			100				100	100	
CCc1cnc(Nc2cccc(C#N)c2Oc2ccc(F)cc2)nc1 [Example 1-310]	80		100			90											
Clc1cnc(Nc2ccccc2Oc2ccccc2)nc1 [Example 1-336]	100	100	100			100					100						
N#Cc1cccc(Nc2ncc(F)cn2)c1Oc1cc(F)c(F)cc1F [Example 1-375]	100	100		100	90	100	100	100	90	100	100	100	100		100	100	
N#Cc1cccc(Nc2ncc(F)cn2)c1Oc1ccc(Cl)nc1 [Example 3-54]	100	100		100	100	90	100	100	100	100	100	100	100		100	100	90
